Values quoted from earlier work as cited in patent US20130165511A1, “TREATMENT FOR COCAINE ADDICTION” (priority 2010, published 2013).

Key:
ALDH-I = target: T1, ALDH-I (Homo sapiens, UniProt P05091)
T1 sequence (P05091 18-517): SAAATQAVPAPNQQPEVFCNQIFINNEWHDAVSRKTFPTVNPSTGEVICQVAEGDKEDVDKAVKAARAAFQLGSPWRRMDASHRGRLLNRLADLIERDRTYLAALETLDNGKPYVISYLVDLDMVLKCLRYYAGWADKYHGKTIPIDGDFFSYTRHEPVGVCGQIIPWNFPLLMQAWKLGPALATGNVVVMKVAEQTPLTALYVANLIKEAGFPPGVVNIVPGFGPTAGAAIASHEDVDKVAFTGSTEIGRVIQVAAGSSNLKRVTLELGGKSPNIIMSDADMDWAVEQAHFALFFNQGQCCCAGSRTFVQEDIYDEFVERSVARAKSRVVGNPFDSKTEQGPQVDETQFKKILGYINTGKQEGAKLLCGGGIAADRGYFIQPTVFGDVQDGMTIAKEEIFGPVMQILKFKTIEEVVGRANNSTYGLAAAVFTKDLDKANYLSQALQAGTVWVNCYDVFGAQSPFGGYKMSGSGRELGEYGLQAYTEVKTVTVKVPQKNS

CYP2D6 = CYP2D6 (Homo sapiens, UniProt P10635)
Sequence of CYP2D6 (P10635 whole entry): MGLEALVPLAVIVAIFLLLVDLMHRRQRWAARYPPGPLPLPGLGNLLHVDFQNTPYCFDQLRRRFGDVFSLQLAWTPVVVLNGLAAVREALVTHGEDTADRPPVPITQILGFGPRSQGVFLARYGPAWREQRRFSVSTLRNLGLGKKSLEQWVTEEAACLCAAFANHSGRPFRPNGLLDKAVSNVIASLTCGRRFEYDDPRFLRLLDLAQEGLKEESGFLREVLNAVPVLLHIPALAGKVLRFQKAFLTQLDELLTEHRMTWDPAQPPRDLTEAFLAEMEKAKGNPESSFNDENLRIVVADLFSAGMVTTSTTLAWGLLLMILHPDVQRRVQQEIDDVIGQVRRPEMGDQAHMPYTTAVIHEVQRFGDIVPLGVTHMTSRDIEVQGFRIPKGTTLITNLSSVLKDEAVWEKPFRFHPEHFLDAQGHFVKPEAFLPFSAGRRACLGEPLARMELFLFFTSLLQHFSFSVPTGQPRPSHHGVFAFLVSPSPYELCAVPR

CYP2C19 = CYP2C19 (Homo sapiens, UniProt P33261)
Sequence of CYP2C19 (P33261 whole entry): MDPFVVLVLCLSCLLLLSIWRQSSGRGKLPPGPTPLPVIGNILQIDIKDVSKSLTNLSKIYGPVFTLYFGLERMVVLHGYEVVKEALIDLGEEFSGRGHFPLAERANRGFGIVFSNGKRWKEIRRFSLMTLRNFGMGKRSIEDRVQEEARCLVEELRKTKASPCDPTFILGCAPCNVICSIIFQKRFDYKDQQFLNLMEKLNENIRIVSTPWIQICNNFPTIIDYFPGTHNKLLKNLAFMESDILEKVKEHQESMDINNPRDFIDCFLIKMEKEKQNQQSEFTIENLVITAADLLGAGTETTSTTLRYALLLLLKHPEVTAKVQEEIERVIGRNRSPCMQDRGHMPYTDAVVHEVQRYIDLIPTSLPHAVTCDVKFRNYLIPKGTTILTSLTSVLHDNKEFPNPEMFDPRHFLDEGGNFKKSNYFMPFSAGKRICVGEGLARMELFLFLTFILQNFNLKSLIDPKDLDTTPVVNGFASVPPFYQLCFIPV

CYP2B6 = target: T2, CYP2B6 (Homo sapiens, UniProt P20813)
T2 sequence (P20813 1-491): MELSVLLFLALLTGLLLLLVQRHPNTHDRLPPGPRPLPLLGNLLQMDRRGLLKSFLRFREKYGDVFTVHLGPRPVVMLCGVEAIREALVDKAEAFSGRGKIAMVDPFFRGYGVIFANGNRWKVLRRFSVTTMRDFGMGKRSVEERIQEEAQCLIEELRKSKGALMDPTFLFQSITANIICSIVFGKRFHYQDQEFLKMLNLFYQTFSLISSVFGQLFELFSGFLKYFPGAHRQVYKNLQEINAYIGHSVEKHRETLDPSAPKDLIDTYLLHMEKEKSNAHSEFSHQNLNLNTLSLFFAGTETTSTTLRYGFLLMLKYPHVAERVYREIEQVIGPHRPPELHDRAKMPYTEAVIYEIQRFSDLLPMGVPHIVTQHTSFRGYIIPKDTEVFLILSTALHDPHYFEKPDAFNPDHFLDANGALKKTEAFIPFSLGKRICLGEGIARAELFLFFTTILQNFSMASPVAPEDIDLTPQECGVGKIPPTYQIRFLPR

ALDH-II = target: T3, ALDH-II (Homo sapiens, UniProt P00352)
T3 sequence (P00352 1-501): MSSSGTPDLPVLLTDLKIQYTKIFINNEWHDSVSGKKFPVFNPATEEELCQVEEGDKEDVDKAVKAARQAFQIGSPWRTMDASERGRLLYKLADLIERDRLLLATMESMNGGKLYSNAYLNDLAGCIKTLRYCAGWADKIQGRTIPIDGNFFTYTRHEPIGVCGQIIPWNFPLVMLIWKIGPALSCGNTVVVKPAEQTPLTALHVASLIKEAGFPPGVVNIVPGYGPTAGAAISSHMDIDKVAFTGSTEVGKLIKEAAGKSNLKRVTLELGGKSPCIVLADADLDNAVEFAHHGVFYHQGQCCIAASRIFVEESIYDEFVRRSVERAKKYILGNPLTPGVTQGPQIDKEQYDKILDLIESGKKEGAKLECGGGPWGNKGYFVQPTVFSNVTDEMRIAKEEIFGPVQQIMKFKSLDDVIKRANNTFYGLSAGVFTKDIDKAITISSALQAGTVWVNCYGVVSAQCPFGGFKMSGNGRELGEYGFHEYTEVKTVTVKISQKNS

ALDH = conditions: rat studies
[1] = rat studies
[2] = animal studies, dosage range 0.001-1.0 mg/kg
[3] = 10 mg CR, double-blind randomized study of 134 subjects with cocaine dependence, post hoc analyses

Compound: O=c1c(-c2ccc(O)cc2)coc2cc(O[C@@H]3O[C@H](CO)[C@@H](O)[C@H](O)[C@H]3O)ccc12 [Daidzin, daidzin]
- inhibition of ALDH-I (ALDH-I): selective potent reversible inhibitor

Compound: C#CCNC(C)Cc1ccccc1 (centres unmarked) [N-des methyl selegiline]
- inhibition of CYP2D6 (CYP2D6): concentration dependent inhibition
- inhibition of CYP2C19 (CYP2C19): concentration dependent inhibition
- inhibition of CYP2B6 (CYP2B6): concentration dependent inhibition

Compound: N#CN [cyanamide]
- inhibition of ALDH-I in vitro (ALDH-I; in vitro): unable to inhibit
- inhibition of ALDH-II in vitro (ALDH-II): unable to inhibit

Compound: N5-(hydroxycyclopropyl)-L-glutamine [coprine]
- ALDH inhibition compared to disulfiram (ALDH): more potent inhibitor
- ethanol consumption [1]: effectively suppressed

Compound: C#CCN(C)[C@H](C)Cc1ccccc1 [selegiline]
- safety and abuse potential [2]: safe agent without potential abuse
- self-reported 'high' and 'stimulated' feelings after cocaine administration, area under the curve (10 mg CR formulation, eight subjects): decreased
- reduction in subjective euphoria (selegiline 10 mg po/day followed by acute cocaine infusion, PET study): 40%
- composite score of urine benzoylecgonine (BE), self report and observed improvement [3]: statistically significant effect
- inhibition of CYP2D6 (CYP2D6): concentration dependent inhibition
- inhibition of CYP2B6 (CYP2B6): concentration dependent inhibition
